{"source": "paper PMC8371902", "about": "“Phase 1 study of M2698, a p70S6K/AKT dual inhibitor, in patients with advanced cancer” (Journal of Hematology & Oncology, 2021)", "test_system": "patients with advanced metastatic cancer", "source_text": "In this phase 1 study, dose escalation was followed by expansion cohorts of once-daily, oral M2698 in continuous 21-day cycles. Primary objectives were to determine the maximum tolerated dose (MTD), dose-limiting toxicities (DLTs), and recommended phase 2 dose (RP2D). Secondary objectives were to assess safety and tolerability, pharmacokinetics (PK, including food effect) and antitumor activity. Pharmacodynamic biomarker assessments were exploratory. Treatment was discontinued if there was disease progression, toxicity or consent withdrawal.\nIn Part 1, M2698 monotherapy was investigated in a dose escalation with a food effect cohort. In Part 2, M2698 was investigated as monotherapy (expansion cohort) to further characterize safety, tolerability and pharmacokinetics, and assess antitumor activity in PAM + patients without confounding markers (exploratory).\nDose escalation analysis included all patients who experienced a DLT and those who received ≥ 80% of planned M2698 doses in cycle 1 without experiencing a DLT. Safety analysis included all patients who received ≥ 1 dose of M2698. PK analysis included all patients who received ≥ 1 dose of M2698 and had measurable plasma concentrations. Dose proportionality was tested using the power model (linear regression approach on the log -transformed scale).", "note": "Where two headings read alike, the source gives them in different places.", "data": [{"smiles": "NC(=O)c1cccc2c(N[C@H](CN3CCC3)c3ccc(Cl)c(C(F)(F)F)c3)ncnc12", "note": "[M2698]", "values": [{"measurement": "M2698-related TEAE: Delusion", "setting": "200 mg n=3", "result": 0}, {"measurement": "M2698-related TEAE: Depression", "setting": "200 mg n=3", "result": 0}, {"measurement": "M2698-related TEAE: Diarrhoea", "setting": "200 mg n=3", "result": 0}, {"measurement": "M2698-related TEAE: Diarrhoea haemorrhagic", "setting": "200 mg n=3", "result": 0}, {"measurement": "M2698-related TEAE: Dizziness", "setting": "200 mg n=3", "result": 0}, {"measurement": "M2698-related TEAE: Dry eye", "setting": "200 mg n=3", "result": 0}, {"measurement": "M2698-related TEAE: Dry mouth", "setting": "200 mg n=3", "result": 0}, {"measurement": "M2698-related TEAE: Dysgeusia", "setting": "200 mg n=3", "result": 0}, {"measurement": "M2698-related TEAE: Dyspepsia", "setting": "200 mg n=3", "result": 0}, {"measurement": "M2698-related TEAE: Dysphagia", "setting": "200 mg n=3", "result": 0}, {"measurement": "M2698-related TEAE: Energy increased", "setting": "200 mg n=3", "result": 0}, {"measurement": "M2698-related TEAE: Erythema", "setting": "200 mg n=3", "result": 0}, {"measurement": "M2698-related TEAE: Euphoric mood", "setting": "200 mg n=3", "result": 0}, {"measurement": "M2698-related TEAE: Eye disorders", "setting": "200 mg n=3", "result": 0}, {"measurement": "M2698-related TEAE: Fatigue", "setting": "200 mg n=3", "result": 0}, {"measurement": "M2698-related TEAE: Gamma-glutamyltransferase increased", "setting": "200 mg n=3", "result": 0}, {"measurement": "M2698-related TEAE: Gastrointestinal disorders", "setting": "200 mg n=3", "result": 1}, {"measurement": "M2698-related TEAE: Gastrooesophageal reflux disease", "setting": "200 mg n=3", "result": 0}, {"measurement": "M2698-related TEAE: General disorders and administration site conditions", "setting": "200 mg n=3", "result": 0}, {"measurement": "M2698-related TEAE: Headache", "setting": "200 mg n=3", "result": 0}, {"measurement": "M2698-related TEAE: Hyperhidrosis", "setting": "200 mg n=3", "result": 0}, {"measurement": "M2698-related TEAE: Hypokalaemia", "setting": "200 mg n=3", "result": 0}, {"measurement": "M2698-related TEAE: Hypomagnesaemia", "setting": "200 mg n=3", "result": 0}, {"measurement": "M2698-related TEAE: Insomnia", "setting": "200 mg n=3", "result": 0}, {"measurement": "M2698-related TEAE: Investigations", "setting": "200 mg n=3", "result": 0}, {"measurement": "M2698-related TEAE: Lipase increased", "setting": "200 mg n=3", "result": 0}, {"measurement": "M2698-related TEAE: Lymphopenia", "setting": "200 mg n=3", "result": 0}, {"measurement": "M2698-related TEAE: Metabolism and nutrition disorders", "setting": "200 mg n=3", "result": 1}, {"measurement": "M2698-related TEAE: Mucosal inflammation", "setting": "200 mg n=3", "result": 0}, {"measurement": "M2698-related TEAE: Nausea", "setting": "200 mg n=3", "result": 1}, {"measurement": "M2698-related TEAE: Nervous system disorders", "setting": "200 mg n=3", "result": 0}, {"measurement": "M2698-related TEAE: Nightmare", "setting": "200 mg n=3", "result": 0}, {"measurement": "M2698-related TEAE: Onychomadesis", "setting": "200 mg n=3", "result": 0}, {"measurement": "M2698-related TEAE: Paranoia", "setting": "200 mg n=3", "result": 0}, {"measurement": "M2698-related TEAE: Photosensitivity reaction", "setting": "200 mg n=3", "result": 0}, {"measurement": "M2698-related TEAE: Posterior reversible encephalopathy syndrome", "setting": "200 mg n=3", "result": 0}, {"measurement": "M2698-related TEAE: Pruritus generalised", "setting": "200 mg n=3", "result": 0}, {"measurement": "M2698-related TEAE: Psychiatric disorders", "setting": "200 mg n=3", "result": 0}, {"measurement": "M2698-related TEAE: Rash", "setting": "200 mg n=3", "result": 0}, {"measurement": "M2698-related TEAE: Rash maculo-papular", "setting": "200 mg n=3", "result": 0}, {"measurement": "M2698-related TEAE: Skin and subcutaneous tissue disorders", "setting": "200 mg n=3", "result": 0}, {"measurement": "M2698-related TEAE: Subjects with at least one event", "setting": "200 mg n=3", "result": 1}, {"measurement": "M2698-related TEAE: Transaminases increased", "setting": "200 mg n=3", "result": 0}, {"measurement": "M2698-related TEAE: Tremor", "setting": "200 mg n=3", "result": 0}, {"measurement": "M2698-related TEAE: Vision blurred", "setting": "200 mg n=3", "result": 0}, {"measurement": "M2698-related TEAE: Vomiting", "setting": "200 mg n=3", "result": 0}, {"measurement": "M2698-related TEAE: White blood cell count decreased", "setting": "200 mg n=3", "result": 0}, {"measurement": "M2698-related TEAE: Abnormal dreams", "setting": "240 mg n=17", "result": 2}, {"measurement": "M2698-related TEAE: Affect lability", "setting": "240 mg n=17", "result": 0}, {"measurement": "M2698-related TEAE: Alanine aminotransferase increased", "setting": "240 mg n=17", "result": 0}, {"measurement": "M2698-related TEAE: Amylase increased", "setting": "240 mg n=17", "result": 0}, {"measurement": "M2698-related TEAE: Anaemia", "setting": "240 mg n=17", "result": 0}, {"measurement": "M2698-related TEAE: Angina pectoris", "setting": "240 mg n=17", "result": 0}, {"measurement": "M2698-related TEAE: Anxiety", "setting": "240 mg n=17", "result": 0}, {"measurement": "M2698-related TEAE: Aphasia", "setting": "240 mg n=17", "result": 0}, {"measurement": "M2698-related TEAE: Ataxia", "setting": "240 mg n=17", "result": 0}, {"measurement": "M2698-related TEAE: Blood and lymphatic system disorders", "setting": "240 mg n=17", "result": 0}, {"measurement": "M2698-related TEAE: Blood creatine phosphokinase increased", "setting": "240 mg n=17", "result": 0}, {"measurement": "M2698-related TEAE: Blood creatinine increased", "setting": "240 mg n=17", "result": 1}, {"measurement": "M2698-related TEAE: Cardiac disorders", "setting": "240 mg n=17", "result": 0}, {"measurement": "M2698-related TEAE: Cognitive disorder", "setting": "240 mg n=17", "result": 1}, {"measurement": "M2698-related TEAE: Constipation", "setting": "240 mg n=17", "result": 0}, {"measurement": "M2698-related TEAE: Decreased appetite", "setting": "240 mg n=17", "result": 0}, {"measurement": "M2698-related TEAE: Delusion", "setting": "240 mg n=17", "result": 0}, {"measurement": "M2698-related TEAE: Depression", "setting": "240 mg n=17", "result": 1}, {"measurement": "M2698-related TEAE: Diarrhoea", "setting": "240 mg n=17", "result": 2}, {"measurement": "M2698-related TEAE: Diarrhoea haemorrhagic", "setting": "240 mg n=17", "result": 0}, {"measurement": "M2698-related TEAE: Dizziness", "setting": "240 mg n=17", "result": 1}, {"measurement": "M2698-related TEAE: Dry eye", "setting": "240 mg n=17", "result": 0}, {"measurement": "M2698-related TEAE: Dry mouth", "setting": "240 mg n=17", "result": 0}, {"measurement": "M2698-related TEAE: Dysgeusia", "setting": "240 mg n=17", "result": 0}, {"measurement": "M2698-related TEAE: Dyspepsia", "setting": "240 mg n=17", "result": 0}, {"measurement": "M2698-related TEAE: Dysphagia", "setting": "240 mg n=17", "result": 0}, {"measurement": "M2698-related TEAE: Energy increased", "setting": "240 mg n=17", "result": 0}, {"measurement": "M2698-related TEAE: Erythema", "setting": "240 mg n=17", "result": 0}, {"measurement": "M2698-related TEAE: Euphoric mood", "setting": "240 mg n=17", "result": 0}, {"measurement": "M2698-related TEAE: Eye disorders", "setting": "240 mg n=17", "result": 0}, {"measurement": "M2698-related TEAE: Fatigue", "setting": "240 mg n=17", "result": 3}, {"measurement": "M2698-related TEAE: Gamma-glutamyltransferase increased", "setting": "240 mg n=17", "result": 0}, {"measurement": "M2698-related TEAE: Gastrointestinal disorders", "setting": "240 mg n=17", "result": 4}, {"measurement": "M2698-related TEAE: Gastrooesophageal reflux disease", "setting": "240 mg n=17", "result": 1}, {"measurement": "M2698-related TEAE: General disorders and administration site conditions", "setting": "240 mg n=17", "result": 3}, {"measurement": "M2698-related TEAE: Headache", "setting": "240 mg n=17", "result": 1}, {"measurement": "M2698-related TEAE: Hyperhidrosis", "setting": "240 mg n=17", "result": 0}, {"measurement": "M2698-related TEAE: Hypokalaemia", "setting": "240 mg n=17", "result": 0}, {"measurement": "M2698-related TEAE: Hypomagnesaemia", "setting": "240 mg n=17", "result": 0}, {"measurement": "M2698-related TEAE: Insomnia", "setting": "240 mg n=17", "result": 0}, {"measurement": "M2698-related TEAE: Investigations", "setting": "240 mg n=17", "result": 1}, {"measurement": "M2698-related TEAE: Lipase increased", "setting": "240 mg n=17", "result": 0}, {"measurement": "M2698-related TEAE: Lymphopenia", "setting": "240 mg n=17", "result": 0}, {"measurement": "M2698-related TEAE: Metabolism and nutrition disorders", "setting": "240 mg n=17", "result": 0}, {"measurement": "M2698-related TEAE: Mucosal inflammation", "setting": "240 mg n=17", "result": 0}, {"measurement": "M2698-related TEAE: Nausea", "setting": "240 mg n=17", "result": 3}, {"measurement": "M2698-related TEAE: Nervous system disorders", "setting": "240 mg n=17", "result": 3}, {"measurement": "M2698-related TEAE: Nightmare", "setting": "240 mg n=17", "result": 0}, {"measurement": "M2698-related TEAE: Onychomadesis", "setting": "240 mg n=17", "result": 0}, {"measurement": "M2698-related TEAE: Paranoia", "setting": "240 mg n=17", "result": 0}, {"measurement": "M2698-related TEAE: Photosensitivity reaction", "setting": "240 mg n=17", "result": 0}, {"measurement": "M2698-related TEAE: Posterior reversible encephalopathy syndrome", "setting": "240 mg n=17", "result": 0}]}]}
